For data set [1], the system named is human brain endothelial cells. In words: viability of human brain endothelial cells (LDH activity in culture medium). It is filed as cell-based. The following applies: 24 hours; for cellular toxicity / viability of human brain endothelial cells versus control: doses employed; for LDH activity in the culture medium, ANOVA main effect: various doses. The procedure:
Primary cultures of human brain endothelial cells were plated at a density of 10^4 cells/[…] of EBM 4% in 96 wells culture plates and treated with various doses of γ-secretase and β-secretase inhibitors as indicated in the figure legends. Following 24 hours in culture, the EBM covering the cells was removed and assayed for Lacticodehydrogenase (LDH) activity using the cytotoxicity detection kit (Roche Diagnostic Corporation, Ind.). Cells were covered with […] of EBM 4% and cellular proliferation measured using the Quick cell proliferation assay kit (Biovision Research Products, Calif.).

Another data set concerns explants of rat aortae. The data set can be described thus: rat aortic ring model of angiogenesis (microvessel outgrowths). It is filed as cell-based, Sprague Dawley rats. Particulars: for sprouting of microvessel outgrowths, overall / dose dependence: day 4, 5 and 6. The protocol: Twenty four well tissue culture grade plates (Nalgene International, NY) were covered with […] of Matrigel (Becton-Dickinson, Bedford, Mass.) and allowed to gel for 30 min at 37° C., 5% CO2. Briefly, thoracic aortae were excised from 9 month-old Sprague Dawley rats. After removing the fibroadipose tissue, arteries were sectioned into 1 mm long cross sections, rinsed 5 times with EBM (Clonetics Corp.) containing 4% fetal bovine serum (FBS) and placed on the Matrigel coated wells. Artery rings were covered with an additional […] of Matrigel. After polymerization the Matrigel was covered with 1 mL of EBM (4% FBS) containing various doses of Z-VVL-CHO, OM99-2, P10-P4′statV, DAPT, or L-685,458 as indicated in the figure legends (the culture medium was changed every 3 days). Pictures were taken at day 4, 5 and 6 using a 4×objective. Microvessel outgrowth area was quantified using the Image Pro Plus software. Briefly, ring cultures were photographed using a digital video camera linked to an Olympus BX60 microscope. The outgrowth area was delineated and measured with the Image Pro Plus software by using a strategy of microvessel outgrowth detection based on difference in color intensities between the outgrowths, the Matrigel and the artery ring. The artery rings were manually selected and excluded from the area of measurement and the color intensity threshold was adjusted to selectively measure the area occupied by the microvessel outgrowths. Results were expressed as a percentage of the area occupied by microvessel outgrowths at day 4 in control condition.

Data set [2] deals with human glioblastoma (U-87 MG) xenografts. The data set can be described thus: human glioblastoma U-87 MG xenografts in nude mice. It is filed as in vivo. The following applies: Z-VLL-CHO 5 mg/Kg; for vascularization (vascular index) of U-87 MG tumors versus vehicle: DAPT 10 mg/Kg intraperitoneally, CD31/PECAM-1 immunostaining; for growth (tumor volume) of U-87 MG xenografts versus vehicle: intraperitoneally everyday for 9 days, DAPT 10 mg/Kg. The protocol:
FIG. 8a: Anti-tumoral effect of the γ-secretase inhibitor DAPT and of the β-secretase inhibitor Z-VLL-CHO on human glioblastoma (U-87 MG) xenografts growth rates. U-87 MG cells (6×10^6) were injected subcutaneously into both flanks of 8-10 weeks-old nude mice. Mice were injected intraperitoneally with either the vehicle, 5 mg/Kg of body weight of the β-secretase inhibitor Z-VLL-CHO or 10 mg/Kg of body weight of the γ-secretase inhibitor DAPT, starting when tumors had reached a mean tumor volume of approximately 140 mm^3 (day 8 post implantation). Injections were given everyday for 9 days. […] FIG. 8b: Representative pictures of sections of glioblastoma tumors immunostained with CD31 antibodies. FIG. 8c: Histogram depicting the estimation of glioblastoma tumor vascularization.
(§1) The human glioblastoma U-87 MG and human lung adenocarcinoma A-549 cell lines were obtained from American Tissue Culture Type Collection (Manassas, Va.) and were grown in DMEM containing 1×penicilline-streptomycine-fungizone and 10% fetal bovine serum at 37° C. in a humidified atmosphere of 5% CO2. Tumor cells (6×106) in 100 μl of PBS were inoculated subcutaneously into both flanks of 8-10-week-old female nude mice (Harland). Tumor volume (in mm^3) was determined using the formula (length×width^2)/2, where length was the longest axis and width the measurement at right angles to the length (Clarke et al. 2000). When the tumor volumes reached approximately 150 mm^3, animals were treated intraperitoneally everyday with 100 μl of 50% DMSO/H2O (vehicle group), 5 mg/Kg of body weight of Z-VLL-CHO (β-secretase inhibitor), 5 mg/Kg of JLK-6 (γ-secretase inhibitor) or with 10 mg/Kg of body weight of DAPT. Data were expressed as mean tumor volume±S.E for each treatment group.
At the completion of the study, animals were humanely euthanized and tumors were harvested and fixed in paraformaldehyde 4% overnight at 4° C. After paraffin embedding in an automated tissue processing Sakura Tissue-Tek (E150) (Torrence, Calif.), samples were cut into 5 μm sections, deparafinized, and rehydrated through a graded series of alcohol. Sections were treated with 0.02 mg/ml Proteinase K (Gentra Systems, MN) for 15 minutes at 37° C. to allow for proper antigen retrieval, washed several times in PBS and incubated for 15 minutes in a 0.3% solution of hydrogen peroxide. […] Quantification of tumor vascularization was performed using the stereological dissector method. […] Microvessels were counted in the dissector frame by an experimenter unaware of the different treatment conditions. For each tumor an average vessel count per area of dissector frame was determined. A vascular index was calculated by expressing the vessel count as a percentage of the vessel count in the vehicle treatment condition.

The subject of data set [3] is human lung adenocarcinoma (A-549) xenografts. The data set can be described thus: human lung adenocarcinoma A-549 xenografts in nude mice. It is filed as in vivo. The following applies: Z-VLL-CHO 5 mg/Kg; for vascularization (vascular index) of A-549 tumors versus vehicle: DAPT 10 mg/Kg intraperitoneally, CD31/PECAM-1 immunostaining; for growth (tumor volume) of A-549 xenografts versus vehicle: intraperitoneally everyday for 12 days, DAPT 10 mg/Kg. The protocol:
FIG. 9a: Anti-tumoral effect of the γ-secretase inhibitor DAPT and of the β-secretase inhibitor Z-VLL-CHO on human lung adenocarcinoma (A-549) xenografts growth rates. A-549 cells (8.5×10^6) were injected subcutaneously into both flanks of 8-10 weeks-old nude mice. Mice were injected intraperitoneally with either the vehicle, 5 mg/Kg of body weight of the β-secretase inhibitor Z-VLL-CHO or 10 mg/Kg of body weight of the γ-secretase inhibitor DAPT, starting when tumors had reached a mean tumor volume of approximately 200 mm^3 (day 21 post implantation). Injections were given everyday for 12 days. […] FIG. 9b: Representative pictures of sections of lung adenocarcinoma tumors immunostained with CD31 antibodies. FIG. 9c: Histogram depicting the quantification of the vascularization of lung adenocarcinoma tumors.
FIG. 10: Anti-tumoral effect of the γ-secretase inhibitor JLK-6 on human lung adenocarcinoma (A-549) xenografts growth rates. A-549 cells (8.5×10^6) were injected subcutaneously into both flanks of 8-10 weeks-old nude mice. Mice were injected intraperitoneally everyday from Day 16 (when the tumors reached a volume of approximately 150 mm^3) with either the vehicle or 5 mg/Kg of body weight of the γ-secretase inhibitor JLK-6.
as §1
At the completion of the study, animals were humanely euthanized and tumors were harvested and fixed in paraformaldehyde 4% overnight at 4° C. After paraffin embedding in an automated tissue processing Sakura Tissue-Tek (E150) (Torrence, Calif.), samples were cut into 5 μm sections, deparafinized, and rehydrated through a graded series of alcohol. Sections were treated with 0.02 mg/ml Proteinase K (Gentra Systems, MN) for 15 minutes at 37° C. to allow for proper antigen retrieval, washed several times in PBS and incubated for 15 minutes in a 0.3% solution of hydrogen peroxide. Sections were blocked and then immunostained with a 1:40 dilution of a PECAM-1 antibody (BD-Pharmingen, CA) overnight at 4° C. in a humidification chamber. Vector ABC Kits (Vector Laboratories Inc, CA) where used following the manufacturer's instruction for the immunostaining. Quantification of tumor vascularization was performed using the stereological dissector method. Briefly, forty consecutive sections were taken from a randomly chosen starting point in each tumor. Five sections for each tumor were selected for stereology by taking one section every eight sections. A dissector counting frame was used with inclusion and exclusion lines throughout the reference area. Vessel count was performed at ×400 magnification with the use of an Olympus microscope connected to a digital video camera. Microvessels were counted in the dissector frame by an experimenter unaware of the different treatment conditions. For each tumor an average vessel count per area of dissector frame was determined. A vascular index was calculated by expressing the vessel count as a percentage of the vessel count in the vehicle treatment condition.

Data set [4] deals with U-87 MG brain tumor cells. In words: proliferation of U-87 MG brain tumor cells. It is filed as cell-based, human.

“Also recorded” adds a separate entry of the source. Peptide text beside a SMILES is read from it. * marks the point of attachment. Cbz = O=C(OCc1ccccc1)*

For the compound `CC(C)C[C@@H](C=O)NC(=O)[C@H](CC(C)C)NC(=O)[C@@H](NC(=O)OCc1ccccc1)C(C)C` [Z-VLL-CHO, N-benzyloxycarbony-val-leu-leucinal] (Cbz-Val-Leu-Leu-aldehyde), in data set [1], the “cellular toxicity / viability of human brain endothelial cells versus control” value is recorded as “without affecting their viability” and the “LDH activity in the culture medium, ANOVA main effect” value is recorded as “significant main effect”. Besides, the “sprouting of microvessel outgrowths, overall / dose dependence” value with explants of rat aortae is “profoundly anti-angiogenic; also recorded: dose dependently and potently inhibited”. Also, in the data set with explants of rat aortae (listed as Z-VVL-CHO), the “sprouting of microvessel outgrowths, overall / dose dependence” value is “dose-dependently inhibits”. For the same compound, in data set [2], the “vascularization (vascular index) of U-87 MG tumors versus vehicle” value was “decreased vascularization; also recorded: significantly reduce the vascularization” and the “growth (tumor volume) of U-87 MG xenografts versus vehicle” value is “completely inhibited the growth; also recorded: inhibit the growth”. In data set [3], the “vascularization (vascular index) of A-549 tumors versus vehicle” value is on record as “appeared to be decreased; also recorded: significantly reduce the vascularization” and the “growth (tumor volume) of A-549 xenografts versus vehicle” value is reported as “potently suppressed the growth; also recorded: significantly inhibit the growth”. Also, in data set [4], the “proliferation of U-87 MG brain tumor cells” value is “dose dependently inhibited the proliferation” and the tumoricidal activity entry is reported as “did not display tumoricidal activity”.
On to `C[C@H](NC(=O)Cc1cc(F)cc(F)c1)C(=O)N[C@H](C(=O)OC(C)(C)C)c1ccccc1` [DAPT, N-[N-(3,5-difluorophenacetyl-L-alanyl)]-S-phenylglycine t-butyl ester], for which, in data set [1], the “cellular toxicity / viability of human brain endothelial cells versus control” value is on record as “without inducing cellular toxicity” and the “LDH activity in the culture medium, ANOVA main effect” value is “significant main effect”. In addition, in the data set with explants of rat aortae (5 μM), the “area covered by microvessel outgrowths versus control” value is recorded as “appeared to stimulate”. Moreover, the “area covered by microvessel outgrowths versus control” value in the data set with explants of rat aortae (10 μM) is on record as “no significant difference”. Further, the “area covered by microvessel outgrowths versus control” value with explants of rat aortae (20 μM) is “inhibit”. Besides, in data set [2], the “vascularization (vascular index) of U-87 MG tumors versus vehicle” value is on record as “decreased vascularization; also recorded: significantly reduce the vascularization” and the “growth (tumor volume) of U-87 MG xenografts versus vehicle” value was “completely inhibited the growth; also recorded: inhibit the growth”. Moreover, in data set [3], the “vascularization (vascular index) of A-549 tumors versus vehicle” value is listed as “appeared to be decreased; also recorded: significantly reduce the vascularization” and the “growth (tumor volume) of A-549 xenografts versus vehicle” value was “potently suppressed the growth; also recorded: significantly inhibit the growth”. In data set [4], the “proliferation of U-87 MG brain tumor cells” value is given as “dose dependently inhibited the proliferation” and the tumoricidal activity result is given as “did not display tumoricidal activity”.

These data come from patent US20040229816A1, “Anti-angiogenic and anti-tumoral properties of beta and gamma secretase inhibitors” (priority 2003, published 2004).
